Laboratory results reported in patent publication US5747447A, “Stable polypeptide composition” (COR Therapeutics, priority 1995, dated 1998).
Where two headings read alike, the source gives them in different places. Where a SMILES comes first, the peptide text is derived from it. Bridges are numbered along the chain shown (N, C = ends). [ ]: non-standard residue; d: D form. hArg = N=C(N)NCCCC[C@H](N)C(=O)O; Mpa = O=C(O)CCS

Tests used:
[1] = target: T1, GP IIb-IIIa (Homo sapiens, UniProt P05106+P08514); assay type: binding; conditions: plate assays
T1 construct: GP IIb-IIIa, prepared in purified form; from tissue; own knowledge of the cited Fitzgerald et al. 1985 method
Description: In the assay, GP IIb-IIIa, prepared in purified form, for example as described by Fitzgerald, L. A., et al., Anal Biochem (1985) 151:169-177, incorporated herein by reference, is coated onto a solid support such as beads, test tubes, or microtiter plates. The coated support is then contacted with fibrinogen and with the test material and incubated for a sufficient time to permit maximal binding of fibrinogen to the immobilized GP IIb-IIIa. Fibrinogen is typically provided at a concentration of about 5-50 nM and the test material can, if desired, be added at a series of dilutions. Typical incubations are 2-4 hr at 35° C., the time and temperature being interdependent.
After incubation, the solution containing the fibrinogen and test material is removed and the level of binding of fibrinogen measured by quantitating bound fibrinogen to GP IIb-IIIa. Any suitable means of detection can be used, but it is convenient to employ labeled fibrinogen, for example using radioactive, fluorescent or biotinylated labels. Such methods are well known and need not be elaborated here.
Assessment of the results is aided by employing a control sample, usually identical to the test sample except that the test substance is absent. In this case, percent inhibition may be calculated using the basis, so that [formula] Other measures of inhibition effectiveness, such as IC50, can also be used.

[2] = Description: 20 ml aliquots of the above solution were placed into Type I glass vials and sealed with rubber stoppers and aluminum closures under sterile conditions and stored at a constant temperature. Test sample vials from each temperature condition, -15° C., 5° C., 30° C. and 45° C. were removed periodically and individually assessed and analyzed for stability by HPLC and visual evaluation as described in Example 1.
[3] = Stability of polypeptide I in citrate buffer, HPLC and visual (Example 1); assay type: physicochemical; conditions: citrate buffer pH 5.00 and 5.50 versus pH 6.0
Description: Citrate buffer solution is prepared by mixing citric acid in a volumetric flask to give a final citrate concentration of 25 mM with Nanopure water and adding NaOH to adjust the pH.
One ml aliquots of the above solution of polypeptide in citrate buffer were sealed in borosilicate glass ampules under sterile conditions and stored at a constant temperature. Test sample ampules from each pH and temperature condition 4° C., 50° C. and 70° C. were removed periodically, visually assessed and then analyzed separately by HPLC using a mobile phase comprising acetonitrile (MeCN) and 0.1% trifluoroacetic (TFA) in water. This stability was evaluated by conventional assay methods applicable to purity, weight or size of polypeptides. These included not only visual evaluations, such as discoloration, transparency and precipitation, and included assays normally applied to separate polypeptides from each other and from other materials by reversed phase high performance liquid chromatography (HPLC).
Results of these experiments are set forth in Table 1 in which the stability is expressed in terms of the percentage of main peak of original polypeptide found in the sample analyzed by HPLC. The composition was also found to be normal on visual evaluation.

[4] = target: ADP-induced human platelet aggregation (Homo sapiens, UniProt P05106+P08514); experiment: standard aggregation inhibition assay (ADP-induced human platelet aggregation); assay type: cell-based; conditions: for IC50: ADP-induced human platelet aggregation, read-out: Appr, IC50
Text: 2. Standard assays directly applied to platelet aggregation, such as those described by Gann, Z.-R., et al., J Biol Chem (1988) 263:19827-19832; Huang, T. F., et al., J Biol Chem (1987) 262:16157-16163; Biochemistry (1989) 28:661-666, cited above and incorporated herein by reference;

[5] = system: M21 melanoma cells; experiment: M21 melanoma cell adhesion to vitronectin-coated plates; assay type: cell-based
Description: M21 melanoma cells were labelled with ^35 S-methionine, and then added to vitronectin-coated plates in the presence of the indicated concentrations of purified snake venom peptides. Cell attachment was measured by solubilizing the cells remaining after an incubation and wash, as previously describe.

[6] = 25 mM citrate buffer pH 5.25, about 1 mg/mL
Text: Test sample vials from each temperature condition were removed periodically and analyzed for stability by HPLC and visual inspection as described in Example 1.

T1 sequence (P08514 32-887 limits assumed): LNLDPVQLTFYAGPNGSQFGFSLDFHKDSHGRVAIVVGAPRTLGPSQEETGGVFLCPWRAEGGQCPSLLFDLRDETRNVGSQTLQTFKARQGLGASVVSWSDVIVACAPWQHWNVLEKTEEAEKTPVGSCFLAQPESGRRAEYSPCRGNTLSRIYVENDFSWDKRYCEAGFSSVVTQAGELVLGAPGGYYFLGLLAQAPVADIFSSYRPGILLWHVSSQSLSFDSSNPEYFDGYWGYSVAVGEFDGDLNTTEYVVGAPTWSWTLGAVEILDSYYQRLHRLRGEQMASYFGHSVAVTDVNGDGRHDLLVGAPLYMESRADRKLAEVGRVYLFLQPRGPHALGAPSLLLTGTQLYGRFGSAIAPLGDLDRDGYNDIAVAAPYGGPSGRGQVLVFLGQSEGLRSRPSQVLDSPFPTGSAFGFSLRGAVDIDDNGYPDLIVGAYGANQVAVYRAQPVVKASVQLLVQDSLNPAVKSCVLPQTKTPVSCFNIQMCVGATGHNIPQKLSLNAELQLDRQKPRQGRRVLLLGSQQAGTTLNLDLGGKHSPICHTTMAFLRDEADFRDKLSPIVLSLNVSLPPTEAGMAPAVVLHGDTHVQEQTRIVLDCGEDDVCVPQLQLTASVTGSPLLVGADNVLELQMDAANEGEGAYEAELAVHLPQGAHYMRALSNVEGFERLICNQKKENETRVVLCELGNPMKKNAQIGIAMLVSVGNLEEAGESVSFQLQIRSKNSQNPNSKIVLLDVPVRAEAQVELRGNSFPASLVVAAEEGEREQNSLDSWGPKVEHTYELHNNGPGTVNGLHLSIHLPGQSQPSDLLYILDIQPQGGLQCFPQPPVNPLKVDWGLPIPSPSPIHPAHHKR
T1 sequence (P08514 891-1039 limits assumed): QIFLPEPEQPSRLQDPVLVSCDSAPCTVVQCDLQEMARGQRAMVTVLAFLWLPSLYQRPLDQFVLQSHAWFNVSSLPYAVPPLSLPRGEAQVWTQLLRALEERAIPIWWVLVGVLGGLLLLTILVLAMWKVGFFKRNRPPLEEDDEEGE
T1 sequence (P05106 27-788): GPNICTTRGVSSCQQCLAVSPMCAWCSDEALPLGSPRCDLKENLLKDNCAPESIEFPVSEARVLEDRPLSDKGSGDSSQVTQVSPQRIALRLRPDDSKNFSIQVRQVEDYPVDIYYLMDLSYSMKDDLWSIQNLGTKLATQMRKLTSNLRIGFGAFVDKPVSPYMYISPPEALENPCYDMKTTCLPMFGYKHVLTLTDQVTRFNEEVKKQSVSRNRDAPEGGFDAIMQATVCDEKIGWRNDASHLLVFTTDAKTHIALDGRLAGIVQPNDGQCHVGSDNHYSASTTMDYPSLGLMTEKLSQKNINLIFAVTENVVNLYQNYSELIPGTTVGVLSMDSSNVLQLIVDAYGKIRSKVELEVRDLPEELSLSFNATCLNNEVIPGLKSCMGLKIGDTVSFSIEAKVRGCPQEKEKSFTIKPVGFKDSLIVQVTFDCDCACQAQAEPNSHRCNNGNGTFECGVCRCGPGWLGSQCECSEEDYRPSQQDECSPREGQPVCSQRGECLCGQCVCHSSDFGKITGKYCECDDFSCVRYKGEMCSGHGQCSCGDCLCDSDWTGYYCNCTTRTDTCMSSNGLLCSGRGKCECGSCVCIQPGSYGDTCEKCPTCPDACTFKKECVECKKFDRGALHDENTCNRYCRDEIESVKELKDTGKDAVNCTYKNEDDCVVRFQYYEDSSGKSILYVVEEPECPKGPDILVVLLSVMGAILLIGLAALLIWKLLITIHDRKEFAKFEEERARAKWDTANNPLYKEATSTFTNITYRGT
ADP-induced human platelet aggregation, sequence (P08514 32-1039): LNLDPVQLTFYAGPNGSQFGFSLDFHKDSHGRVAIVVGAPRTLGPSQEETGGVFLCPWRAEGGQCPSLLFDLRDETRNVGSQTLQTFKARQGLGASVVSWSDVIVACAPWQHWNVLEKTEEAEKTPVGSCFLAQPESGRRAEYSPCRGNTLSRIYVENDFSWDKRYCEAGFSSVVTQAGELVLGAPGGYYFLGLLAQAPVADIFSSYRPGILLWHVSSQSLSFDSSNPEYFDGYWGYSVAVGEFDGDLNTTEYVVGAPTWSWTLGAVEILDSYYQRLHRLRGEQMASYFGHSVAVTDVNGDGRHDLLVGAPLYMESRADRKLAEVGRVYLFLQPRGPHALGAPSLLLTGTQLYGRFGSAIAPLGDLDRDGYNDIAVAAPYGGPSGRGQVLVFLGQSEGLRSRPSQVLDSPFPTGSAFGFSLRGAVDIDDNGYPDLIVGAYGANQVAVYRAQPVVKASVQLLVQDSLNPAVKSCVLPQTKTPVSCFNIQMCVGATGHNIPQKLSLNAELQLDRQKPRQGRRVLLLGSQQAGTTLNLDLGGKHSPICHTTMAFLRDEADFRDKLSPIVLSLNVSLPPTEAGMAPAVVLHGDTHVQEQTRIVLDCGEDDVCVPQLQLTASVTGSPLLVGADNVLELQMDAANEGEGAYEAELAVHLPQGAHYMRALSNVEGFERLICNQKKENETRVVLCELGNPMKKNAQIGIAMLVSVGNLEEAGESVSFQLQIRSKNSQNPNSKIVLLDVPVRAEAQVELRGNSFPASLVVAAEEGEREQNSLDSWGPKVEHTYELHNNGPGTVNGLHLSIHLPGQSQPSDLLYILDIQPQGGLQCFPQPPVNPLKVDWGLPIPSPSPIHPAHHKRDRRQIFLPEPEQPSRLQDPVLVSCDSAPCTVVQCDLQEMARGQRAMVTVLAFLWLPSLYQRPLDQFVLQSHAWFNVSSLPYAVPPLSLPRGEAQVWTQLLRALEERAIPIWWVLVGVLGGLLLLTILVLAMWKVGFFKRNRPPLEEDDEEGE
ADP-induced human platelet aggregation, sequence (P05106 27-788): as the sequence (P05106 27-788) above

C[C@H](NC(=O)[C@@H]1CSSC[C@H](NC(=O)CN)C(=O)N[C@@H](CCCCN)C(=O)NCC(=O)N[C@@H](CC(=O)O)C(=O)N[C@@H](Cc2c[nH]c3ccccc23)C(=O)N1)C(N)=O [Analog #7, G-C-K-G-D-W-C-A-NH2] (H-GCKGDWCA-NH2; disulfide 2-7 (inferred); N-terminus assumed)
differential fibrinogen/GP IIb-IIIa versus vitronectin/vitronectin receptor (in words) [1]: quite specific

N=C(N)NCCCC[C@@H]1NC(=O)CCSSC[C@@H](C(N)=O)NC(=O)[C@@H]2CCCN2C(=O)[C@H](Cc2c[nH]c3ccccc23)NC(=O)[C@H](CC(=O)O)NC(=O)CNC1=O [I, Mpr-L-homoarginine-Gly-Asp-Trp-Pro-Cys-NH2 .cndot.acetate] ([Mpa][hArg]GDWPC-NH2; disulfide 1-7)
Peptide Stability in 5.5 pH Citrate Buffer Composition (HPLC as in Example 1) ([2]; 5° C., Time (days) 0): 98.8
Peptide Stability in 5.5 pH Citrate Buffer Composition (HPLC as in Example 1) ([2]; 5° C., Time (days) 76): 98.6
Peptide Stability in 5.5 pH Citrate Buffer Composition (HPLC as in Example 1) ([2]; 5° C., Time (days) 126): 98.5
Peptide Stability in 5.5 pH Citrate Buffer Composition (HPLC as in Example 1) ([2]; 5° C., Time (days) 222): 98.5
Peptide Stability in 5.5 pH Citrate Buffer Composition (HPLC as in Example 1) ([2]; 5° C., Time (days) 301): 98.2
Peptide Stability in 5.5 pH Citrate Buffer Composition (HPLC as in Example 1) ([2]; 5° C., Time (days) 399): 98.2
Peptide Stability in 5.5 pH Citrate Buffer Composition (HPLC as in Example 1) ([2]; 5° C., Time (days) 572): 98.2
Peptide Stability in 5.5 pH Citrate Buffer Composition (HPLC as in Example 1) ([2]; 30° C. after one month at 5° C., Time (days) 45): 97.4
Peptide Stability in 5.5 pH Citrate Buffer Composition (HPLC as in Example 1) ([2]; 30° C. after one month at 5° C., Time (days) 95): 96.4
Peptide Stability in 5.5 pH Citrate Buffer Composition (HPLC as in Example 1) ([2]; 30° C. after one month at 5° C., Time (days) 191): 95.8
Peptide Stability in 5.5 pH Citrate Buffer Composition (HPLC as in Example 1) ([2]; 30° C. after one month at 5° C., Time (days) 270): 95.1
Peptide Stability in 5.5 pH Citrate Buffer Composition (HPLC as in Example 1) ([2]; 30° C. after one month at 5° C., Time (days) 368): 94.5
Peptide Stability in 5.5 pH Citrate Buffer Composition (HPLC as in Example 1) ([2]; 30° C. after one month at 5° C., Time (days) 541): 93.6
Peptide Stability in 5.5 pH Citrate Buffer Composition (HPLC as in Example 1) ([2]; 45° C. after one month at 5° C., Time (days) 45): 96.1
Peptide Stability in 5.5 pH Citrate Buffer Composition (HPLC as in Example 1) ([2]; 45° C. after one month at 5° C., Time (days) 95): 94.1
Peptide Stability in 5.5 pH Citrate Buffer Composition (HPLC as in Example 1) ([2]; 45° C. after one month at 5° C., Time (days) 191): 92.4
Peptide Stability in 5.5 pH Citrate Buffer Composition (HPLC as in Example 1) ([2]; 45° C. after one month at 5° C., Time (days) 270): 89.8
Peptide Stability in 5.5 pH Citrate Buffer Composition (HPLC as in Example 1) ([2]; 45° C. after one month at 5° C., Time (days) 368): 86.5
Peptide Stability in 5.5 pH Citrate Buffer Composition (HPLC as in Example 1) ([2]; 45° C. after one month at 5° C., Time (days) 541): 76.1
Peptide Stability in 5.5 pH Citrate Buffer Composition (HPLC as in Example 1) ([2]; -15° C. after one month at 5° C., Time (days) 45): 98.9
Peptide Stability in 5.5 pH Citrate Buffer Composition (HPLC as in Example 1) ([2]; -15° C. after one month at 5° C., Time (days) 95): 99.0
Peptide Stability in 5.5 pH Citrate Buffer Composition (HPLC as in Example 1) ([2]; -15° C. after one month at 5° C., Time (days) 191): 99.1
Peptide Stability in 5.5 pH Citrate Buffer Composition (HPLC as in Example 1) ([2]; -15° C. after one month at 5° C., Time (days) 270): 98.7
Peptide Stability in 5.5 pH Citrate Buffer Composition (HPLC as in Example 1) ([2]; -15° C. after one month at 5° C., Time (days) 368): 98.6
Peptide Stability in 5.5 pH Citrate Buffer Composition (HPLC as in Example 1) ([2]; -15° C. after one month at 5° C., Time (days) 541): 98.9
stability of liquid solution (in words) [3]: unexpectedly very stable at about 4° C., still stable at up to about 50 °C and much more stable at 70 °C in comparison to citrate buffer solutions at pH 6.0

NCCCC[C@@H]1NC(=O)CNC(=O)[C@@H](N)CSSC[C@@H](C(N)=O)NC(=O)[C@@H]2CCCN2C(=O)[C@H](Cc2c[nH]c3ccccc23)NC(=O)[C@H](CC(=O)O)NC(=O)CNC1=O [Analog #5, C-G-K-G-D-W-P-C-NH2] (H-CGKGDWPC-NH2; disulfide 1-8)
differential fibrinogen/GP IIb-IIIa versus vitronectin/vitronectin receptor (in words) [1]: quite specific
IC50 [4]: 5 µM

C[C@H](NC(=O)[C@@H]1CSSC[C@H](NC(=O)CN)C(=O)N[C@@H](CCCCN)C(=O)NCC(=O)N[C@@H](CC(=O)O)C(=O)N[C@@H](Cc2c[nH]c3ccccc23)C(=O)N2CCC[C@H]2C(=O)N1)C(N)=O [Analog #4, G-C-K-G-D-W-P-C-A-NH2] (H-GCKGDWPCA-NH2; disulfide 2-8)
differential fibrinogen/GP IIb-IIIa versus vitronectin/vitronectin receptor (in words) [1]: highest differential
IC50 [4]: 5 µM

C[C@H](NC(=O)[C@@H]1CSSC[C@H](NC(=O)CN)C(=O)NCC(=O)N[C@@H](CCCNC(=N)N)C(=O)NCC(=O)N[C@@H](CC(=O)O)C(=O)N[C@@H](Cc2c[nH]c3ccccc23)C(=O)N2CCC[C@H]2C(=O)N1)C(N)=O [reference compound] (H-GCGRGDWPCA-NH2; disulfide 2-9)
M21 cell attachment to vitronectin (in words) [5]: potent inhibitors of cell attachment

C[C@H](NC(=O)[C@@H]1CSSC[C@H](NC(=O)CN)C(=O)NCC(=O)N[C@@H](CCCCN)C(=O)NCC(=O)N[C@@H](CC(=O)O)C(=O)N[C@@H](Cc2c[nH]c3ccccc23)C(=O)N2CCC[C@H]2C(=O)N1)C(N)=O [Analog #3, G-C-G-K-G-D-W-P-C-A-NH2]
M21 cell attachment to vitronectin (in words) [5]: ineffective up to 60 uM

C[C@@H]1NC(=O)CCSSC[C@@H](C(N)=O)NC(=O)[C@@H]2CCCN2C(=O)[C@H](Cc2c[nH]c3ccccc23)NC(=O)[C@H](CC(=O)O)NC(=O)CNC(=O)[C@H](CCCCNC(=N)N)NC1=O [PAI 82, Mpr-A-Har-G-D-W-P-C-NH2] ([Mpa]A[hArg]GDWPC-NH2; disulfide 1-8)
stability by HPLC as in Example 1 ([6]; 5° C., Time (Days) 0): 99.6
stability by HPLC as in Example 1 ([6]; 5° C., Time (Days) 29): 98.1
stability by HPLC as in Example 1 ([6]; 5° C., Time (Days) 60): 98.3
stability by HPLC as in Example 1 ([6]; 5° C., Time (Days) 90): 97.3
stability by HPLC as in Example 1 ([6]; 30° C., Time (Days) 29): 97.3
stability by HPLC as in Example 1 ([6]; 30° C., Time (Days) 60): 97.3
stability by HPLC as in Example 1 ([6]; 30° C., Time (Days) 90): 96.5
stability by HPLC as in Example 1 ([6]; 45° C., Time (Days) 29): 95.4
stability by HPLC as in Example 1 ([6]; 45° C., Time (Days) 60): 92.6
stability by HPLC as in Example 1 ([6]; 45° C., Time (Days) 90): 90.6
IC20 ([4]; PAI activity, Example 15, read-out: Appr.IC20): 0.12 µM
